These are literature values, as cited in patent US9079837B2, “Water-soluble fluorescent fullerene derivative, and preparation method thereof” (KOREA RESEARCH INSTITUTE OF BIOSCIENCE AND BIOTECHNOLOGY, priority 2010, dated 2015).

The conditions of series [1]: water; Sivaraman et al., J. Org. Chem. 1992.
The conditions of series [2]: for fluorescence quantum yield: literature value (J. Am. Chem. Soc. 1993, 1994), room temperature.

Structures are written as SMILES. ≈ marks a conversion by molar mass, not a printed value. Counter-ions that a name gives are not always drawn. Like-named read-outs stand apart in the source and are kept apart here.

As a reminder, the solubility is the concentration that dissolves in the medium under given conditions. For `c12c3c4c5c1c1c6c7c2c2c8c3c3c9c4c4c%10c5c5c1c1c6c6c%11c7c2c2c7c8c3c3c8c9c4c4c9c%10c5c5c1c1c6c6c%11c2c2c7c3c3c8c4c4c9c5c1c1c6c2c3c41` [C60 fullerene, buckminster fullerene (C60)], the solubility in series [1] is 1.3e-05 ng/mL (≈ 1.8e-05 nM). In addition, the fluorescence quantum yield result in series [2] (listed as fullerenes) was “about 1×10^−4”; in series [2] (listed as general fullerene), 1×10^−4.
As for `C=C[C@H]1C[N@@]2CC[C@H]1C[C@H]2[C@H](O)c1ccnc2ccc(OC)cc12` [quinine sulfate], in series [2] (standard value), the “fluorescence quantum yield of standard” value is 55×10^−2.
